Paper PMC8552062, “Contributions of UDP-Glucuronosyltransferases to Human Hepatic and Intestinal Metabolism of Ticagrelor and Inhibition of UGTs and Cytochrome P450 Enzymes by Ticagrelor and its Glucuronidated Metabolite” (Frontiers in Pharmacology, 2021)

How the values were obtained:
Format in all cases: in vitro ADME
UGT1A8 = target: T1, UGT1A8 (Homo sapiens, UniProt Q9HAW9); experiment: Ticagrelor glucuronidation by recombinant human UGT1A8; details: recombinant human UGT1A8, pH 7.4
T1 construct: purchased BD Gentest; host or cells: baculovirus-infected insect cells
Procedure: Ticagrelor glucuronidation was investigated in an in vitro incubation system by using HLM, HIM, and recombinant human UGTs. The incubation system consisted of enzyme sources (HLM, HIM, or human recombinant UGTs), various concentrations of ticagrelor (dissolved in 50% methanol, 1% v/v, 1, 2, 5, 10, 20, 50, 100, 200, 500 μM of final concentration), alamethicin (50 μg/mg protein), 5 mM MgCl2, 100 mM tris-HCL buffer (pH 7.4), and 5 mM UDPGA in a total volume of 100 μl. Alamethicin is a pore-forming polypeptide used to activate UGTs in HLM and HIM ([Fisher et al., 2000]). Preliminary studies were conducted to determine the optimal protein concentrations and incubation times. Linear conditions of ticagrelor-O-Glu formation from ticagrelor, i.e., HLM, 0.2 mg of protein/ml and 60 min, HIM, 0.2 mg of protein/ml and 60 min, and recombinant human UGTs, 0.2 mg of protein/ml and 60 min were selected. The incubation mixture without UDPGA was placed on ice for 15 min to activate UGT by alamethicin. […]
Kinetic analyses were performed using the mean values of triplicate determinations with either pooled HLM, HIM, or recombinant human UGTs. All data were analyzed by nonlinear regression analysis using the GraphPad Prism 6 (GraphPad Software Inc., CA, United States). […] Intrinsic clearance (CLint) was calculated by dividing Vmax by Km.

CYP3A4 = target: T2, CYP3A4 (Homo sapiens, UniProt P08684); experiment: CYP3A4 inhibition in HLM (testosterone 6β-hydroxylase); details: human liver microsomes, pH 7.4, probe testosterone (80 μM), 6β-hydroxy testosterone formation
T2 construct: co-incubation ticagrelor-O-Glu with selective P450 probe substrates in HLM; tissue XenoTech LLC; host or cells: pooled human liver microsomes
Procedure: (§1) The potential inhibitory effects of ticagrelor-O-Glu on the activities of major CYPs, i.e., CYP2B6, CYP2C8, CYP2C9, CYP2C19, CYP2D6, and CYP3A4, were evaluated by co-incubation ticagrelor-O-Glu with selective P450 probe substrates in HLM. Each incubation mixture containing 0.2 mg/ml HLM, ticagrelor-O-Glu and respective substrate (the final substrate concentrations are close to or less than the Km values: 150 μM bupropion, 1.26 μM amodiaquine, 10 μM diclofenac, 20 μM mephenytoin, 20 μM dextromethorphan and 80 μM testosterone (in house data)) in potassium phosphate buffer (100 mM, pH 7.4) was pre-incubated at 37°C for 5 min. Then, NADPH (10 mM) was added to initiate the reaction. The final volume of the incubation mixture was 100 μl. After incubation at 37°C for specific time points, the reaction was terminated by the addition of 200 μl of ice-cold methanol solution with internal standards (diazepam and furafylline). […] The formation of respective metabolites was determined to reflect P450 isoform activities. The metabolites quantified for CYP2B6, CYP2C8, CYP2C9, CYP2C19, CYP2D6, and CYP3A4 were hydroxy bupropion, N-Desethyl amodiaquine, 4′-hydroxylation diclofenac, S-4-hydroxy mephenytoin, dextrorphan and 6β-hydroxy testosterone, respectively.
(§2) The percent inhibition relative to the control was calculated to indicate the UGTs or CYPs inhibition. […]

CYP2C8 = target: T3, CYP2C8 (Homo sapiens, UniProt P10632); experiment: CYP2C8 inhibition in HLM (amodiaquine N-deethylase); details: HLM 0.2 mg/ml
T3 construct: co-incubation ticagrelor-O-Glu with selective P450 probe substrates in HLM; tissue XenoTech LLC; host or cells: pooled human liver microsomes
Procedure: as §1, §2

CYP2D6 = target: T4, CYP2D6 (Homo sapiens, UniProt P10635); experiment: CYP2D6 inhibition in HLM (dextromethorphan O-demethylase); details: HLM 0.2 mg/ml
T4 construct: co-incubation ticagrelor-O-Glu with selective P450 probe substrates in HLM; tissue XenoTech LLC; host or cells: pooled human liver microsomes
Procedure: as §1, §2

CYP2C19 = target: T5, CYP2C19 (Homo sapiens, UniProt P33261); experiment: CYP2C19 inhibition in HLM ([S]-mephenytoin 4′-hydroxylase)
T5 construct: co-incubation ticagrelor-O-Glu with selective P450 probe substrates in HLM; tissue XenoTech LLC; host or cells: pooled human liver microsomes
Procedure: The potential inhibitory effects of ticagrelor-O-Glu on the activities of major CYPs, i.e., CYP2B6, CYP2C8, CYP2C9, CYP2C19, CYP2D6, and CYP3A4, were evaluated by co-incubation ticagrelor-O-Glu with selective P450 probe substrates in HLM. Each incubation mixture containing 0.2 mg/ml HLM, ticagrelor-O-Glu and respective substrate (the final substrate concentrations are close to or less than the Km values: 150 μM bupropion, 1.26 μM amodiaquine, 10 μM diclofenac, 20 μM mephenytoin, 20 μM dextromethorphan and 80 μM testosterone (in house data)) in potassium phosphate buffer (100 mM, pH 7.4) was pre-incubated at 37°C for 5 min. Then, NADPH (10 mM) was added to initiate the reaction. The final volume of the incubation mixture was 100 μl. After incubation at 37°C for specific time points, the reaction was terminated by the addition of 200 μl of ice-cold methanol solution with internal standards (diazepam and furafylline). Preliminary screening experiments with selected concentrations of ticagrelor-O-Glu (0, 1, 10, or 100 μM of the final concentration) were carried out to determine the inhibition potency. For those that produced approximately 50% inhibition of CYPs enzyme activities at a ticagrelor-O-Glu concentration between 1 and 100 μM, IC50 was further determined with various concentrations of ticagrelor-O-Glu (0, 1, 5, 10, 20, 50, and 100 μM). All the experiments were performed in triplicates. The supernatant was obtained after centrifugation at 14,000 rpm for 10 min and injected into LC-MS/MS for the analysis of the respective metabolites. The formation of respective metabolites was determined to reflect P450 isoform activities. The metabolites quantified for CYP2B6, CYP2C8, CYP2C9, CYP2C19, CYP2D6, and CYP3A4 were hydroxy bupropion, N-Desethyl amodiaquine, 4′-hydroxylation diclofenac, S-4-hydroxy mephenytoin, dextrorphan and 6β-hydroxy testosterone, respectively.
as §2

T5 sequence (P33261 whole entry): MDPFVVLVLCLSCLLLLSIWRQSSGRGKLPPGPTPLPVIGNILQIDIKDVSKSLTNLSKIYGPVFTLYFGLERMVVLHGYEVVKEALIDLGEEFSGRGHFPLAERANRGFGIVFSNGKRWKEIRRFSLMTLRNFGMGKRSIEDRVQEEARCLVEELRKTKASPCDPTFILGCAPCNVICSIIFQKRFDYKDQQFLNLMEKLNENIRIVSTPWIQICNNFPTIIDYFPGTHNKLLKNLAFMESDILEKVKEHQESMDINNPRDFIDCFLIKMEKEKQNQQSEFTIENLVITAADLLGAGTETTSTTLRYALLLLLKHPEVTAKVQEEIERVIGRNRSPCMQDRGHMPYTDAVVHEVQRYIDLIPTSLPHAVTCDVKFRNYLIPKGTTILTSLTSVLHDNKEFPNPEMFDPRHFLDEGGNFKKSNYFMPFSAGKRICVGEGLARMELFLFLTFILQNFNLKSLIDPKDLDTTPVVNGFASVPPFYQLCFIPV
T2 sequence (P08684 whole entry): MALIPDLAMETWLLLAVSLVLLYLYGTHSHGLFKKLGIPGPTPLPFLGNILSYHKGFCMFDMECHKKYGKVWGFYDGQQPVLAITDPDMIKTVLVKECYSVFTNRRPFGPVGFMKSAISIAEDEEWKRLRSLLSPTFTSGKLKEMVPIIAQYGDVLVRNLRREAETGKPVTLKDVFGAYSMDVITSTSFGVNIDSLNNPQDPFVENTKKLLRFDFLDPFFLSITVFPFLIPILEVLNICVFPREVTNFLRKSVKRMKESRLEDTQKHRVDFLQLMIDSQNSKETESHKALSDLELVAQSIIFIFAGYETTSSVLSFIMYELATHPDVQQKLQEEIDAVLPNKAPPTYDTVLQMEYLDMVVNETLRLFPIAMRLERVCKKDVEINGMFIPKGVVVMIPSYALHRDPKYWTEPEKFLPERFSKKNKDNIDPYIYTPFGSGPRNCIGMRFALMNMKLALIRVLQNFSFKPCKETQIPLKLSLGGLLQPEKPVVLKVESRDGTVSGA
T1 sequence (Q9HAW9 26-530): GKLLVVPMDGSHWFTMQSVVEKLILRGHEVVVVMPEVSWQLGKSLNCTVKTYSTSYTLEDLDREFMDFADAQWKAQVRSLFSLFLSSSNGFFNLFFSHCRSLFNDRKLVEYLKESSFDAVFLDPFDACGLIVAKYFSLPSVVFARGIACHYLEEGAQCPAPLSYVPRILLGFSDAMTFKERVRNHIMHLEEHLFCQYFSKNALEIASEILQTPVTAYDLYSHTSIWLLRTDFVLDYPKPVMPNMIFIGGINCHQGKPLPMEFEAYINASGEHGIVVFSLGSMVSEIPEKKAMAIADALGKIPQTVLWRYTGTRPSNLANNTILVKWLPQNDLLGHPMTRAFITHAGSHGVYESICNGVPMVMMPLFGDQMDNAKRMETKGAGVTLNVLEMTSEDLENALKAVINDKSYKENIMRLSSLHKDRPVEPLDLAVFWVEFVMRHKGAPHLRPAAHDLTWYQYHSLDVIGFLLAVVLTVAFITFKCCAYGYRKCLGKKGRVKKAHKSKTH
T3 sequence (P10632 whole entry): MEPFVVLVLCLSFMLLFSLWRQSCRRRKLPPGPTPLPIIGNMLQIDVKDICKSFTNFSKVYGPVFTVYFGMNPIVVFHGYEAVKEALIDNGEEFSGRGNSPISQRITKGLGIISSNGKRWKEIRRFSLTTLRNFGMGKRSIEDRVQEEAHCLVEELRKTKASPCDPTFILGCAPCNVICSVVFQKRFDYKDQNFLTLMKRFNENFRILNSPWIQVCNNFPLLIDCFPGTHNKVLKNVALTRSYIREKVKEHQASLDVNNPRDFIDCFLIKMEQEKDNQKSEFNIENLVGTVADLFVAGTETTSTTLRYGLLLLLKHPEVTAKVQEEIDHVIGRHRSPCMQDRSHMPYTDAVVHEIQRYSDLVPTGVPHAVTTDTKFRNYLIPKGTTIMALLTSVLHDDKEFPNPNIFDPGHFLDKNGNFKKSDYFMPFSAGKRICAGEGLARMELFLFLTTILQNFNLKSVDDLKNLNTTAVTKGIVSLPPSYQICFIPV
T4 sequence (P10635 whole entry): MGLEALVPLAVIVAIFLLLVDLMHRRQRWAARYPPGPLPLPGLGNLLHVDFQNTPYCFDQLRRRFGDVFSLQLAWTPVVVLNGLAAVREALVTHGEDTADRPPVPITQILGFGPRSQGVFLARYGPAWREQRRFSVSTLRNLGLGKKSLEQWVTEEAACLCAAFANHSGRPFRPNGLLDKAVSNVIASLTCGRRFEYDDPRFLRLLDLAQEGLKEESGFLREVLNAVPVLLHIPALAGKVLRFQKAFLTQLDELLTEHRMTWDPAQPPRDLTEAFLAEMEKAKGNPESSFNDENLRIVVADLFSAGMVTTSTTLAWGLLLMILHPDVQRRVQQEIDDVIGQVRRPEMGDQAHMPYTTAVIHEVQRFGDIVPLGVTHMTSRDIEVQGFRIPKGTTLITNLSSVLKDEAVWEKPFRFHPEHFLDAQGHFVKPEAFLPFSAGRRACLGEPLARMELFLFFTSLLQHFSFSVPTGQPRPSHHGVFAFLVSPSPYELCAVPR

Structure (SMILES)	microsomal CLint (UGT1A8) [µL/min/mg]	IC50 (CYP3A4; CYP3A4, testosterone 6β-hydroxylase, HLM 0.2 mg/ml) [µM]	inhibition at 100 µM (CYP3A4; HLM, 100 μM ticagrelor-O-Glu, read-out: inhibition of CYP3A4 enzyme activity) [%]	IC50 (CYP2C8) [µM]	IC50 (CYP2D6) [µM]	IC50 (CYP2C19; CYP2C19, [S]-mephenytoin 4′-hydroxylase, HLM 0.2 mg/ml) [µM]	inhibition at 10 μM (CYP2C19; human, human liver microsomes, pH 7.4, probe mephenytoin (20 μM), S-4-hydroxy mephenytoin formation, HLM, 10 μM ticagrelor-O-Glu, read-out: inhibition of CYP2C19 enzyme activity) [%]	inhibition at 100 µM (CYP2C19; human, human liver microsomes, pH 7.4, probe mephenytoin (20 μM), S-4-hydroxy mephenytoin formation, HLM, 100 μM ticagrelor-O-Glu, read-out: inhibition of CYP2C19 enzyme activity) [%]
CCCSc1nc(N[C@@H]2C[C@H]2c2ccc(F)c(F)c2)c2nnn([C@@H]3C[C@H](OCCO)[C@@H](O)[C@H]3O)c2n1 [Ticagrelor]	0.01							
CCCSc1nc(N[C@@H]2C[C@H]2c2ccc(F)c(F)c2)c2nnn([C@@H]3C[C@H](OCCO[C@@H]4O[C@H](C(=O)O)[C@@H](O)[C@H](O)[C@H]4O)[C@@H](O)[C@H]3O)c2n1 [Ticagrelor-O-Glu, ticagrelor-O-glucuronide]		> 100	57.1	> 100	> 100	18.8	32.7	83.6
